Experimental data reported in publication PMC7461568, “Novel Cyclic Lipopeptide Antibiotics: Effects of Acyl Chain Length and Position” (International Journal of Molecular Sciences, 2020).
In brackets after ≈: the same amount, converted by molar mass. Where a SMILES comes first, the peptide text is derived from it. [ ]: non-standard residue; d: D form. The star is where a group is joined. 2Nal = N[C@@H](Cc1ccc2ccccc2c1)C(=O)O; Octanoyl = CCCCCCCC(=O)*; Dab = NCC[C@H](N)C(=O)O; AEEA = NCCOCCOCC(=O)O

Key:
S. aureus ATCC 29213 = assay: microbe, parasite or virus in culture; assay type: cell-based, Staphylococcus aureus; conditions: S. aureus ATCC 29213; MHB-II, inoculum 5 × 10^5 CFU/mL, 37 °C, 18–24 h, visual read-out, triplicate
Method: (§1) In the original report on S3(B), MIC experiments were carried out by using non-cation-adjusted MHB-I media. To this, bovine serum albumin (BSA) and acetic acid were added. The rationale for choosing a medium without cations is that cation-adjusted media (MHB-II) in some cases causes substantial inhibition of the activity of cationic peptides. Furthermore, some peptides are at risk of precipitation when diluted into MHB medium, which can be avoided via the addition of BSA and acetic acid. However, the use of MHB-II is favorable to imitate the in vivo conditions as much as possible. Both media were tested with and without the addition of BSA and acetic acid by trial and error. […]
(§2) Cation-adjusted Mueller-Hinton broth (MHB-II) media (BD BBLTM Beef extract powder, BD BactoTMCasamino acids, and DIFCO soluble starch was from Becton, Dickinson and Company©, Franklin Lakes, NJ, USA). […] A VersaMaxTM Tunable Microplate Reader (Molecular Devices LLC, Sunnyvale, CA, USA) was used and the data were evaluated on a Softmax® Pro (Molecular Devices LLC).
(§3) The MIC experiments were performed according to a protocol adapted from Wiegand et al., with minor modifications. The MICs were determined in triplicate. […] The MIC values were visually evaluated, and the MIC was set to the lowest concentration […] based on triplicate measurements. […]

A. baumannii ATCC 19606 = assay type: cell-based, Acinetobacter baumannii; conditions: MHB-II, inoculum 5 × 10^5 CFU/mL, 37 °C, 18–24 h, visual read-out, triplicate
Method: as §1, §2, §3

K. pneumonia ATCC 13883 = assay type: cell-based, Klebsiella pneumoniae; conditions: K. pneumoniae ATCC 13883; MHB-II, inoculum 5 × 10^5 CFU/mL, 37 °C, 18–24 h, visual read-out, triplicate
Method: In the original report on S3(B), MIC experiments were carried out by using non-cation-adjusted MHB-I media. To this, bovine serum albumin (BSA) and acetic acid were added. The rationale for choosing a medium without cations is that cation-adjusted media (MHB-II) in some cases causes substantial inhibition of the activity of cationic peptides. Furthermore, some peptides are at risk of precipitation when diluted into MHB medium, which can be avoided via the addition of BSA and acetic acid. However, the use of MHB-II is favorable to imitate the in vivo conditions as much as possible. Both media were tested with and without the addition of BSA and acetic acid by trial and error. The use of pure MHB-II was compatible with S3(B) and its fatty acid analogues, and therefore was chosen for the MIC determinations. Noticeably, MHB-I with BSA and acetic acid led to precipitation of lipopeptides in the present work.
Cation-adjusted Mueller-Hinton broth (MHB-II) media (BD BBLTM Beef extract powder, BD BactoTMCasamino acids, and DIFCO soluble starch was from Becton, Dickinson and Company©, Franklin Lakes, NJ, USA). MHB media supplemented with 0.2% BSA was from Sigma Aldrich (St. Louis, MO, USA) and 0.01% acetic acid from VWR®. The 96 well plate cell-culture cluster, round-bottom, polypropylene plates, and V-shaped 96 well polypropylene plates were purchased from Corning® Inc., Costar®, Corning, NY, USA. Microseal® film was obtained from Bio-Rad Laboratories, Inc., Hercules, CA, USA. A VersaMaxTM Tunable Microplate Reader (Molecular Devices LLC, Sunnyvale, CA, USA) was used and the data were evaluated on a Softmax® Pro (Molecular Devices LLC).
The MIC experiments were performed according to a protocol adapted from Wiegand et al., with minor modifications. The MICs were determined in triplicate. The peptides were dissolved in Milli-Q water to produce 10 mg/mL stock solutions in small glass containers. The bacterial isolates to be tested were streaked onto agar plates to obtain single colonies, and the plates were incubated at 37 °C for 18–24 h. The strains tested were S. aureus ATCC 29213, P. aeruginosa ATCC 27853, E. coli ATCC 25922, A. baumannii ATCC 19606, and K. pneumonia ATCC 13883. Test compounds were prepared in 2-fold dilutions in 50 μL volumes in polypropylene microtiter plates. Bacterial cultures grown to OD600 = 0.1–0.4 were diluted to a desired OD600 of 0.001–0.002 corresponding to 1 × 10^6 CFU/mL. Next, 50 μL bacterial suspension was added to the microtiter plates, giving a final bacterial inoculum of 5 × 10^5 CFU/mL per well. The plates were incubated at 37 °C for 18–24 h. […] The MIC values were visually evaluated, and the MIC was set to the lowest concentration […] based on triplicate measurements. […]

human erythrocytes = assay: Hemolysis of red blood cells; conditions: 1 h; for %H, percent hemolytic activity against red blood cells at 150 μM: human erythrocytes, 0.5% v/v RBC suspension in PBS, peptide 150 μM, 37 °C, absorbance 414 nm, melittin positive control, triplicate
Method: The hemolysis experiments were performed according to the protocol described in Reference. The peptides were tested at concentrations from 2.35–150 μM, using melittin as positive control and PBS as negative control. One premade tablet of PBS was dissolved in 200 mL Milli-Q water. The solution was kept in the refrigerator for a maximum of two days. The day before the test, the positive control wells of the 96 well polypropylene plates were precoated with 150 μL of melittin 5 μM solution in PBS. The solution was prepared in Protein LoBind Eppendorf tubes. The day of the test, the solution was discarded and the wells were washed three times with 150 μL PBS. A melittin 2.50 μM solution in PBS was prepared in Protein LoBind Eppendorf tubes—500 μL for every plate to be used. The mass of the peptide needed to reach a final concentration of 300 μM (to start testing down from 150 μM) was calculated, since a volume of 500 μL was desirable. […] The peptides were dissolved in PBS and tested in triplicate.
In a 96 well polypropylene plate, 150 μL of peptide solution was transferred to three wells in Row A. Therefore, each plate could accommodate up to four peptides. A 2-fold serial dilution of the peptides was obtained by transferring 75 μL of the solutions from Row A to the corresponding wells in Row B, mixing a couple of times. From Row B, 75 μL was transferred to Row C and so on until Row G, where 75 μL was discarded after mixing. Volumes of 75 μL melittin (2.50 μM) was transferred to the positive control wells in H1–H6. Preparation of the RBC suspension: 1 mL of whole blood was transferred to a cryotube with 3 mL of PBS, and then it was gently mixed and centrifuged for 8 min at 3000 rpm. The supernatant was discarded, and the process was repeated twice; with 4 mL at 3000 rpm and 4 mL at 4000 rpm, respectively. From the final RBC pellet, 40 μL was transferred to 8 mL of PBS (multiplied by the number of test plates needed). This corresponded to a 0.5% v/v RBC suspension. The suspension was gently mixed and transferred into a CAPPOrigami reservoir. Using a multichannel pipette, 75 μL of the suspension was transferred into each well and mixed in the direction of increasing concentration. The control wells were mixed separately. The plates were covered with BioradMicroseal foil and incubated at 37 °C for 1 h. The plates (maximum two) were centrifuged for 10 min at 4000 rpm, followed by transferring of supernatant (60 μL) from each well into the corresponding wells in a clear ELISA plate. The absorbance (A) of each well was measured at λ = 414 nm using the software program Softmax(R) Pro.

[1] = Hydrophobicity by analytical RP-HPLC (%B at peak elution); assay type: physicochemical; conditions: chromatographic, percentage of mobile phase B at the peak elution time
Source text: To investigate the effect of attaching fatty acids to a macrocycle, fatty acid tails of different lengths were used. When the carbon chain was elongated, the hydrophobicity of the peptide was increased gradually. Herein, the hydrophobicity is expressed as the percentage of mobile phase B at the peak elution time on an RP-HPLC system.

CCCCCCCC(=O)NCC[C@@H]1NC(=O)[C@H](CCN)NC(=O)[C@H](CCCNC(=N)N)NC(=O)[C@H](Cc2ccc3ccccc3c2)NC(=O)[C@H](CCN)NC(=O)[C@H](CC(N)=O)NC(=O)[C@H](CCN)NC(=O)[C@H](Cc2ccc3ccccc3c2)NC(=O)COCCOCCNC1=O [(C8)^5] (cyclo([Dab][2Nal]R[Dab][Dab](Octanoyl)[AEEA][2Nal][Dab]N))
Minimum inhibitory concentration, SA (S. aureus ATCC 29213): 8 µg/mL (≈ 5.99 µM)
Minimum inhibitory concentration, AB (A. baumannii ATCC 19606): 16 µg/mL (≈ 12 µM)
Minimum inhibitory concentration, KP (K. pneumonia ATCC 13883): >64 µg/mL
%H, percent hemolytic activity against red blood cells at 150 μM (human erythrocytes): 42%
%H, percent hemolytic activity against red blood cells at 150 μM (human erythrocytes; listed as (C8)^7): 56%
HD50 (hemolysis) (human erythrocytes; red cells of human): > 150 µM
%B at peak of elution in analytical HPLC (hydrophobicity) [1]: 69%
%B at peak of elution in analytical HPLC (hydrophobicity) ([1]; listed as (C8)^7): 71%
